Test results reported in PubChem BioAssay (NCI).
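Each compound was tested at five concentrations against cells in 96-well plates for 48 hours. At the GI50, growth is halved. TGI denotes the concentration required for complete inhibition of growth.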

Assays:
Experiment in all cases: growth of human tumour cells (NCI), 48 h
[1] = test system: A498 renal
[2] = test system: UACC-62 melanoma
[3] = test system: SNB-19 CNS
[4] = test system: NCI-H522 lung
[5] = test system: MOLT-4 leukemia
[6] = test system: HT29 colon
[7] = test system: RXF 393 renal
[8] = test system: K-562 leukemia
[9] = test system: OVCAR-5 ovarian
[10] = test system: SF-295 CNS

Row | SMILES | GI50 [1] [µM] | TGI [1] [µM] | GI50 [2] [µM] | TGI [2] [µM] | GI50 [3] [µM] | TGI [3] [µM] | GI50 [4] [µM] | TGI [4] [µM] | GI50 [5] [µM] | TGI [5] [µM] | GI50 [6] [µM] | TGI [6] [µM] | GI50 [7] [µM] | TGI [7] [µM] | GI50 [8] [µM] | TGI [8] [µM] | GI50 [9] [µM] | TGI [9] [µM] | GI50 [10] [µM] | TGI [10] [µM]
1 | CCC(=O)Nc1ccc(C)c(-c2ccc(C(=O)NCC3CC3)cc2)c1 | > 25 | > 25 | > 25 | > 25 | > 25 | > 25 | > 25 | > 25 | > 25 | > 25 | > 25 | > 25 | > 25 | > 25 | > 25 | > 25 | > 25 | > 25 | > 25 | > 25
2 | C/C(=C\c1cc(C(F)(F)F)n(-c2ccc(N)cc2)n1)[C@@H]1C[C@@H]2O[C@]2(C)CCC[C@H](C)[C@H](O)[C@@H](C)C(=O)C(C)(C)[C@@H](O)CC(=O)O1 | 0.0438 |  | 0.0245 | > 6.85 | 0.0711 | > 11.1 | 0.0233 | 0.0839 | 0.0515 | > 11.1 | 0.00621 | 0.339 | 0.032 | 0.379 | 0.0203 | > 11.1 | 0.0488 | > 11.1 | 0.0369 | 1.39
3 | O=C(/C=C/C12c3ccccc3C(c3ccccc31)C1C(=O)NC(=O)C12)c1ccc(F)cc1 (stereo unspecified) | 1.68 | 3.11 | 1.68 | 3.48 | 1.65 | 3.18 | 2.14 | 4.98 | 0.457 | 2.9 | 2.34 | 5.21 | 1.77 | 3.3 | 1.42 | 4.75 | 1.92 | 4.12 | 2.01 | 4.24
4 | O=C(CCn1[nH]c(=O)c(Cl)c(Cl)c1=O)NNC(=O)C[n+]1ccccc1 |  | > 100 |  | > 100 |  | > 100 |  | > 100 |  | > 100 |  | > 100 |  | > 100 |  | > 100 |  | > 100 |  | > 100
5 | CCOC(=O)C1=C(C)N(Cc2ccc(Cl)cc2Cl)C2(O)C=CC(=O)C3=C(O)c4ccccc4C(=O)C312 (stereo unspecified) | 23.7 | 59.4 | 4.72 | 18.9 | 9.02 | 78.7 | 11.4 | > 100 | 3.87 | > 100 | 5.04 | > 100 | 11.1 | 66.5 | 4.85 | > 100 | 9.59 | 30.1 | 3.07 | 14.9
6 | CC1(C)NCCC[C@]2(C)[C@H]3CC[C@@H]4[C@H]5[C@H](C(=O)/C=C/c6ccccn6)CC[C@]5(CO)CC[C@@]4(C)[C@]3(C)CC[C@@H]12 | 8.7 | 23.5 | 4 | 17.2 | 3.92 | 19.8 | 1.81 | 4.45 | 2.35 | 7.18 | 2.85 | 11.3 | 2.51 | 8.08 | 2.19 | > 100 | 3.69 | 16.9 | 1.82 | 3.47
7 | Cc1cccc(C(C)(C)C)c1NC(=O)CCc1nc(=S)[nH][nH]1 |  | > 100 |  | > 100 |  | > 100 |  | > 100 |  | > 100 |  | > 100 |  | > 100 |  | > 100 |  | > 100 |  | > 100
8 | CC(=O)O[C@H](C[C@H](C(C)C)N(C)C(=O)[C@@H](NC(=O)[C@H]1CCCN1C)C(C)C)c1nc(C(=O)N[C@@H](Cc2ccccc2)C[C@H](C)C(=O)O)c(C)s1 | < 0.00167 | 0.00956 | < 0.00167 | > 16.7 | < 0.00167 | > 16.7 | < 0.00167 | < 0.00167 | < 0.00167 | > 16.7 | < 0.00167 | > 16.7 | < 0.00167 | > 16.7 | < 0.00167 | > 16.7 | 0.00716 | > 16.7 | < 0.00167 | > 16.7
9 | CSC(=S)OC1CC(n2cnc3c(NC(=O)c4ccccc4)ncnc32)OC1CO[Si](C)(C)C(C)(C)C (stereo unspecified) |  | > 31.6 |  | > 56.2 |  | > 56.2 |  | > 56.2 |  | 14.8 |  | > 56.2 |  | > 65.8 |  | > 49.5 |  | > 56.2 |  | > 56.2
10 | O=C(Nc1cccc(-c2ccc(Cl)c(C(F)(F)F)c2)c1)C1CCN(Cc2cccc3cccnc23)CC1 | 1.33 | 2.65 | 1.69 | 3.09 | 1.74 | 3.18 | 1.73 | 3.68 | 1.79 | 4.52 | 1.21 | 3.33 | 1.27 | 2.61 | 1.1 | 5.99 | 1.57 | 2.92 | 1.73 | 3.22
11 | NS(=O)(=O)c1ccc(N(/C=C/C(=O)C(F)(F)F)Cc2ccc(Cl)cc2)cc1 | 17.4 | 41.2 | 20.3 | 45.3 | 41.9 | > 100 | 12.6 | 38.4 | 40.1 | > 100 | 43.9 | > 100 | 16 | 47 | 38.9 | > 100 | 28.7 | > 100 | 35.1 | > 100
12 | N#Cc1c(N)nc(N2CCOCC2)c(C#N)c1-c1ccccn1 | > 100 | > 100 | 0.0342 | 0.482 | > 100 | > 100 | > 100 | > 100 | > 100 | > 100 | > 100 | > 100 | > 100 | > 100 | > 100 | > 100 | > 100 | > 100 | > 100 | > 100
13 | Cn1c(N)nc(=O)c2c1N(C1OC(CO)C(O)C1O)CN2Cc1ccccc1 (stereo unspecified) |  | > 100 |  | > 100 |  | > 100 |  | > 100 |  | > 100 |  | > 100 |  | > 100 |  | > 100 |  | > 100 |  | > 100
14 | CC1=C(/C=C/C(C)=C/C=C/C(C)=C/C(=O)O)C(C)(C)CCC1 |  | > 91.1 |  | > 77.4 |  | > 84.6 |  | > 83.7 |  | 69.1 |  | 68.3 |  | > 81.5 |  | > 79.9 |  | > 85.4 |  | > 88.6
15 | O=C(Nc1cccc(Cl)c1)c1cccc(NC2=C(Cl)C(=O)N(Cc3ccccc3)C2=O)c1 | > 100 | > 100 | 21.1 | > 100 | > 100 | > 100 | 18.8 | 53 | 22.2 | > 100 | 55.7 | > 100 | 85 | > 100 | 0.662 | 35.5 | > 100 | > 100 | 44.1 | > 100
16 | CC(=O)[CH-]C(=O)c1ccccc1.CC(=O)[CH-]C(=O)c1ccccc1.Cc1cc([O-])ccc1Cl.Cc1cc([O-])ccc1Cl.[Ti+4] | 17.2 | 42.8 | 17 | 44.9 | 26.7 | 90.5 | 15.6 | 34.7 | 15.5 | 54 | 28.9 | 95.5 | 26 | 62.8 | 23.3 | > 100 | 32.7 | > 100 | 29.8 | 98.7
17 | CN1CCN(c2ccc(NC(=O)c3cncnc3Nc3ccc(OCc4ccccn4)c(Cl)c3)cc2)CC1 | 1.48 | 6.98 | 0.695 | 1.42 | 5.11 | 11.8 | 4.48 | 10.4 | 1.64 | 9.42 | 0.948 | 4.49 | 1.93 | 6.71 | 0.778 | 2.28 | 3.5 | 9.11 | 5.98 | 13.1
18 | [N-]=[N+]=NCCCn1c2c(c3ccc([N+](=O)[O-])cc3c1=O)C(=O)c1cc(F)ccc1-2 | 11.8 | 72.2 | 0.523 | 3.55 | 1.05 | > 100 | 0.853 | 12.2 | 0.245 | 2.7 | 1.24 | > 35.2 | 4.32 | 54.6 | 1.25 | > 100 | 14.4 | > 100 | 0.338 | 9.94
19 | COc1cc(-c2csc(NC(=O)Nc3ccc(C(F)(F)F)cc3)n2)cc(OC)c1OC | 1.99 | 5.09 | 1.99 | 5.38 | 2.69 | 12.3 | 1.9 | 5.88 | 1.85 | 5.46 | 2.39 | 7.08 | 2.18 | 5.89 | 3.04 | > 100 | 2.64 | 9.9 | 1.66 | 4.35
20 | Cc1cn2c(/C=N/N=C(N)N)c(-c3ccccn3)nc2s1 | 17.8 | 34 | 15.9 | 31.6 | 15.1 | 35.8 | 14.2 | 53.3 | 8.67 | > 100 | 19.4 | > 92.8 | 5.9 | 18.1 | 19.5 | > 100 | 22.3 | 46 | 17.1 | 37.1
21 | CCc1ccc(C(=Nc2ccc(N(C)C(=O)CN3CCN(C)CC3)cc2)c2c(O)[nH]c3ccc(C(=O)OC)cc23)cc1 | 0.398 | 1.96 | 1.37 | 3.2 | 0.775 | 2.09 | 0.586 | 2.38 | 0.176 | 0.908 | 0.247 | 3.17 | 0.22 | 1.2 | 0.073 | 1.12 | 1.25 | 2.57 | 1.01 | 2.4
22 | Cc1cccc2c1CCC21OC(=O)c2c1ccc1ccccc21 (stereo unspecified) |  | 53.4 |  | > 100 |  | > 100 |  | > 100 |  | 79.8 |  | > 100 |  | > 100 |  | 66.7 |  | > 100 |  | > 100
23 | Cc1cc(-c2ccccn2)cc(C)c1/C=C/c1cncc(-c2nn[nH]n2)c1 | > 25 | > 25 | > 25 | > 25 | > 25 | > 25 | > 25 | > 25 | > 25 | > 25 | > 25 | > 25 | > 25 | > 25 | > 25 | > 25 | > 25 | > 25 | > 25 | > 25
24 | O=C1/C(=C/c2ccc(Cl)cc2)CCC/C1=C\c1ccc(Cl)cc1 | 2.3 | 8.69 | 4.39 | > 100 | 6.69 | > 100 | 2.78 | 8.52 | 4.09 | > 100 | 2.7 | 6.37 | 1.95 | 3.66 | 3.61 | > 100 | > 100 | > 100 | 3.83 | > 100
25 | CCOC(=O)C#Cc1c(C(=O)OCC)nnn1Cc1ccc([N+](=O)[O-])cc1 | 15.2 | 28.5 | 1.83 | 4.42 | 18.9 | 45.3 | 1.92 | 3.8 | 2.16 | 13.3 |  |  | 1.89 | 3.52 | 1.32 | 10.7 | 8.34 | 22.7 | 18.9 | 38.1
26 | O=C(N/N=C1\C(=O)N(c2nccs2)C(=O)C(=O)C1c1nc2ccccc2s1)c1ccccc1O (stereo unspecified) |  | > 100 |  | > 100 |  | > 100 |  | 96.9 |  |  |  | > 100 |  | > 100 |  | > 100 |  | > 100 |  | > 100
